Data on 26 molecules can be found in patent US8829190B2, “Triazolopyridines as phosphodiesterase inhibitors for treatment of dermal diseases” (Leo Pharma A/S, priority 2007, dated 2014).

In test [1] the test system is Human peripheral blood mononuclear cells (PBMC). In words: TNFα release in LPS-stimulated PBMC. As to conditions: 30 minutes pre-incubation, lipopolysaccharide stimulation 18 hours, read-out: TNFa IC50. The format is cell-based. On the procedure: Human peripheral blood mononuclear cells (PBMC) were isolated from buffy coats. […] The PBMC were suspended in RPMI1640 with 2% foetal calf serum (FCS), pen/strep and 2 mM L-glutamine at a concentration of 5×105 c/ml. The cells were pre-incubated for 30 minutes with the test compounds in 96 well tissue culture plates and stimulated for 18 hours with lipopolysaccharide […] (Sigma). The level of TNFα was measured in the culture supernatant by enzyme immuno assays using primary and secondary biotinylated antibodies from R&D systems.

The target of another test is Human recombinant PDE4 (Homo sapiens (Human), UniProt Q08499). Kind of test: PDE4 assay (SPA, cAMP cleavage). The format is biochemical. The following applies: human recombinant PDE4, 1 hour incubation, cAMP 1×10^-5M. On the procedure: At the end of the incubation, the cleavage of the substrate was evaluated by the binding of the AMP product to SPA beads, which generate chemo luminescence when bound to the radioactive tracer. The AMP product inhibited the binding of the radioactive tracer to the beads, and the luminescent signal was competed.
Human recombinant PDE4, sequence (Q08499 other isoform, or with tags, fused parts or gaps): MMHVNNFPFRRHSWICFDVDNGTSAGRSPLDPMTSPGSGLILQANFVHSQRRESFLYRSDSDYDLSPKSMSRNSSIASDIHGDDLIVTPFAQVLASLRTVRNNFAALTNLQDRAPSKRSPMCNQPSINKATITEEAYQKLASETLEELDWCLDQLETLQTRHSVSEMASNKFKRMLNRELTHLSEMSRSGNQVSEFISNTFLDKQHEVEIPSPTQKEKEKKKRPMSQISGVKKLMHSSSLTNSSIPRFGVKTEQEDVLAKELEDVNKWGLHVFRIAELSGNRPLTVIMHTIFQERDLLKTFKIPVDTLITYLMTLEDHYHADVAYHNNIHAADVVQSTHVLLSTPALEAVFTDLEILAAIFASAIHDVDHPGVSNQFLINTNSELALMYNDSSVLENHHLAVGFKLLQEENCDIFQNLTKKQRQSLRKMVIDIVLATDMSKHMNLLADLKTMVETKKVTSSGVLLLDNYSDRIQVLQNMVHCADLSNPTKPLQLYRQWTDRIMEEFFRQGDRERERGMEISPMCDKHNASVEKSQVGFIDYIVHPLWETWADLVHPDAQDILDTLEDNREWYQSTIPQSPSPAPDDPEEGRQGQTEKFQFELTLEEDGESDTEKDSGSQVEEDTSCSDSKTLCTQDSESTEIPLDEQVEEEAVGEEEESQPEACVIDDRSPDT

The structures appear in SMILES notation.

A word on the IC50: it is the midpoint of a concentration-inhibition curve. Take `COc1ccc(C(=O)Cc2c(Cl)cncc2Cl)n2nc(C3CC3)nc12` [Compound 101, 1-(2-cyclopropyl-8-methoxy-[1,2,4]triazolo[1,5-a]pyridin-5-yl)-2-(3,5-dichloro-pyridin-4-yl)-ethanone]: the IC50 in test [1] came out at 3 nM; on Human recombinant PDE4 it was 2 nM.
The matching figures for `COc1ccc(C(=O)Cc2c(Cl)cncc2Cl)n2ncnc12` [Compound 102, 2-(3,5-Dichloro-pyridin-4-yl)-1-(8-methoxy-[1,2,4]triazolo[1,5-a]pyridin-5-yl)-ethanone]: 291 nM and 134 nM.
As to `COc1ccc(C(=O)Cc2c(Cl)cncc2Cl)n2nc(-c3ccco3)nc12` [Compound 103, 2-(3,5-Dichloro-pyridin-4-yl)-1-(2-furan-2-yl-8-methoxy-[1,2,4]triazolo[1,5-a]pyridin-5-yl)-ethanone], the values for the IC50 (in test [1]; on Human recombinant PDE4) were 27 nM and 7 nM, respectively.
With `COc1ccc(C(=O)Cc2c(Cl)cncc2Cl)n2nc(COCc3ccccc3)nc12` [Compound 104, 1-(2-Benzyloxymethyl-8-methoxy-[1,2,4]triazolo[1,5-a]pyridin-5-yl)-2-(3,5-dichloro-pyridin-4-yl)-ethanone], the IC50 in test [1] came to 66 nM; at Human recombinant PDE4, 26 nM.
The matching figures for `COc1ccc(C(=O)Cc2c(Cl)cncc2Cl)n2nc(CO)nc12` [Compound 105, 2-(3,5-Dichloro-pyridin-4-yl)-1-(2-hydroxymethyl-8-methoxy-[1,2,4]triazolo[1,5-a]pyridin-5-yl)-ethanone]: 603 nM and 305 nM.
Regarding `COc1ccc(C(=O)Cc2c(Cl)cncc2Cl)n2nc(C3(CO)CC3)nc12` [Compound 106, 2-(3,5-Dichloro-pyridin-4-yl)-1-[2-(1-hydroxymethyl-cyclopropyl)-8-methoxy-[1,2,4]triazolo[1,5-a]pyridin-5-yl]-ethanone], the half-maximal inhibitory concentration (IC50) in test [1] was 5 nM; at Human recombinant PDE4, 4 nM.
The matching figures for `COc1ccc(C(=O)Cc2c(Cl)cncc2Cl)n2nc(C)nc12` [Compound 107, 2-(3,5-Dichloro-pyridin-4-yl)-1-(8-methoxy-2-methyl-[1,2,4]triazolo[1,5-a]pyridin-5-yl)-ethanone]: 117 nM and 45 nM.
For the molecule `COc1ccc(C(=O)Cc2c(Cl)cncc2Cl)n2nc(C3(C(=O)O)CC3)nc12` [Compound 108, 1-{5-[2-(3,5-Dichloro-pyridin-4-yl)-acetyl]-8-methoxy-[1,2,4]triazolo[1,5-a]pyridin-2-yl}-cyclopropanecarboxylic acid], on Human recombinant PDE4, the IC50 was found to be 55 nM.
On to `COc1ccc(C(=O)Cc2c(Cl)cncc2Cl)n2nc(C3(C(=O)N4CCOCC4)CC3)nc12` [Compound 109, 2-(3,5-Dichloro-pyridin-4-yl)-1-{8-methoxy-2-[1-(morpholine-4-carbonyl)-cyclopropyl]-[1,2,4]triazolo[1,5-a]pyridin-5-yl}-ethanone], for which the IC50 came to 29 nM in test [1] and 24 nM on Human recombinant PDE4.
The matching figures for `COc1ccc(C(=O)Cc2c(Cl)cncc2Cl)n2nc(C3(C(=O)NCc4ccccc4)CC3)nc12` [Compound 110, 1-{5-[2-(3,5-Dichloro-pyridin-4-yl)-acetyl]-8-methoxy-[1,2,4]triazolo[1,5-a]pyridin-2-yl}-cyclopropanecarboxylic acid benzylamide]: 0.7 nM and 0.5 nM.
In the case of `COc1ccc(C(=O)Cc2c(Cl)cncc2Cl)n2nc(C3(C(=O)NCc4ccccn4)CC3)nc12` [Compound 112, 1-{5-[2-(3,5-Dichloro-pyridin-4-yl)-acetyl]-8-methoxy-[1,2,4]triazolo[1,5-a]pyridin-2-yl}-cyclopropanecarboxylic acid (pyridin-2-ylmethyl)-amide], the results for the IC50 (in test [1]; on Human recombinant PDE4) were 0.6 nM and 1 nM, respectively.
Regarding `COc1ccc(C(=O)Cc2c(Cl)cncc2Cl)n2nc(C3(C(=O)NCc4cccnc4)CC3)nc12` [Compound 113, 1-{5-[2-(3,5-Dichloro-pyridin-4-yl)-acetyl]-8-methoxy-[1,2,4]triazolo[1,5-a]pyridin-2-yl}-cyclopropanecarboxylic acid (pyridin-3-ylmethyl)-amide], the values for the IC50 (in test [1]; on Human recombinant PDE4) were 0.5 nM and 0.7 nM, respectively.
For the molecule `COc1ccc(C(=O)Cc2c(Cl)cncc2Cl)n2nc(C3(C(=O)NCc4ccncc4)CC3)nc12` [Compound 114, 1-{5-[2-(3,5-Dichloro-pyridin-4-yl)-acetyl]-8-methoxy-[1,2,4]triazolo[1,5-a]pyridin-2-yl}-cyclopropanecarboxylic acid (pyridin-4-ylmethyl)-amide], the values for the IC50 (in test [1]; at Human recombinant PDE4) were 0.2 nM and 0.4 nM, respectively.
Consider `COc1ccc(C(=O)Cc2c(Cl)cncc2Cl)n2nc(C3(C(=O)NCC(C)(C)C)CC3)nc12` [Compound 115, 1-{5-[2-(3,5-Dichloro-pyridin-4-yl)-acetyl]-8-methoxy-[1,2,4]triazolo[1,5-a]pyridin-2-yl}-cyclopropanecarboxylic acid (2,2-dimethyl-propyl)-amide], for which the IC50 on Human recombinant PDE4 stood at 0.2 nM.
As to `COc1ccc(C(=O)Cc2c(Cl)cncc2Cl)n2nc(C3(C(=O)NC4CCCC4)CC3)nc12` [Compound 116, 1-{5-[2-(3,5-Dichloro-pyridin-4-yl)-acetyl]-8-methoxy-[1,2,4]triazolo[1,5-a]pyridin-2-yl}-cyclopropanecarboxylic acid cyclopentylamide], the IC50 on Human recombinant PDE4 stood at 0.1 nM.
Consider `COc1ccc(C(=O)Cc2c(Cl)cncc2Cl)n2nc(C3(C(N)=O)CC3)nc12` [Compound 118, 1-{5-[2-(3,5-Dichloro-pyridin-4-yl)-acetyl]-8-methoxy-[1,2,4]triazolo[1,5-a]pyridin-2-yl}-cyclopropanecarboxylic acid amide], for which the values for the IC50 (in test [1]; on Human recombinant PDE4) were 2 nM and 3 nM, respectively.
On to `COc1ccc(C(=O)Cc2c(Cl)cncc2Cl)n2nc(C3(CNCc4ccccc4)CC3)nc12` [Compound 119, 1-{2-[1-(Benzylamino-methyl)-cyclopropyl]-8-methoxy-[1,2,4]triazolo[1,5-a]pyridin-5-yl}-2-(3,5-dichloro-pyridin-4-yl)-ethanone], for which the IC50 in test [1] was 13 nM; on Human recombinant PDE4, 8 nM.
On the same counts, the results for `COc1ccc(C(=O)Cc2cnccn2)n2nc(C3(CO)CC3)nc12` [Compound 120, 1-[2-(1-Hydroxymethyl-cyclopropyl)-8-methoxy-[1,2,4]triazolo[1,5-a]pyridin-5-yl]-2-pyrazin-2-yl-ethanone] are 2200 nM and 2500 nM.
On the same counts, the results for `COc1ccc(C(=O)Cc2ccnc3ccccc23)n2nc(C3(CO)CC3)nc12` [Compound 121, 1-[2-(1-Hydroxymethyl-cyclopropyl)-8-methoxy-[1,2,4]triazolo[1,5-a]pyridin-5-yl]-2-quinolin-4-yl-ethanone] are 2100 nM and 3600 nM.
Consider `COc1ccc(C(=O)Cc2ccncc2)n2nc(C3(CO)CC3)nc12` [Compound 122, 1-[2-(1-Hydroxymethyl-cyclopropyl)-8-methoxy-[1,2,4]triazolo[1,5-a]pyridin-5-yl]-2-pyridin-4-yl-ethanone], for which the IC50 in test [1] came to 139 nM; at Human recombinant PDE4, 261 nM.
On the same counts, the results for `COc1ccc(C(=O)Cc2c(Br)cncc2Br)n2nc(C3(CO)CC3)nc12` [Compound 123, 2-(3,5-Dibromo-pyridin-4-yl)-1-[2-(1-hydroxymethyl-cyclopropyl)-8-methoxy-[1,2,4]triazolo[1,5-a]pyridin-5-yl]-ethanone] are 15 nM and 68 nM.
On to `COc1ccc(C(=O)Cc2ccncc2Br)n2nc(C3(CO)CC3)nc12` [Compound 124, 2-(3-Bromo-pyridin-4-yl)-1-[2-(1-hydroxymethyl-cyclopropyl)-8-methoxy-[1,2,4]triazolo[1,5-a]pyridin-5-yl]-ethanone], for which the results for the half-maximal inhibitory concentration (IC50) (in test [1]; on Human recombinant PDE4) were 115 nM and 52 nM, respectively.
Regarding `COc1ccc(C(=O)Cc2ccnc(C#N)c2)n2nc(C3(CO)CC3)nc12` [Compound 125, 4-{2-[2-(1-Hydroxymethyl-cyclopropyl)-8-methoxy-[1,2,4]triazolo[1,5-a]pyridin-5-yl]-2-oxo-ethyl}-pyridine-2-carbonitrile], the IC50 in test [1] was determined as 4800 nM; at Human recombinant PDE4, 3100 nM.
On the same counts, the results for `COc1ccc(C(=O)Cc2nccnc2Cl)n2nc(C3(CO)CC3)nc12` [Compound 126, 2-(3-Chloro-pyrazin-2-yl)-1-[2-(1-hydroxymethyl-cyclopropyl)-8-methoxy-[1,2,4]triazolo[1,5-a]pyridin-5-yl]-ethanone] are 712 nM and 548 nM.
With `COc1ccc(C(=O)Cc2ccccc2Cl)n2nc(C3CC3)nc12` [Compound 127, 2-(2-Chloro-phenyl)-1-(2-cyclopropyl-8-methoxy-[1,2,4]triazolo[1,5-a]pyridin-5-yl)-ethanone], the IC50 in test [1] was found to be 105 nM.
Still for that read-out and setting: the value for `COc1ccc(C(=O)Cc2c(Cl)c[n+]([O-])cc2Cl)n2nc(C3CC3)nc12` [Compound 128, 1-(2-Cyclopropyl-8-methoxy-[1,2,4]triazolo[1,5-a]pyridin-5-yl)-2-(3,5-dichloro-1-oxy-pyridin-4-yl)-ethanone] was 5 nM.
